Test results taken from PMC8893036 (European journal of medicinal chemistry, 2022).
Read-outs that look alike come from different tables or passages of the source.

Experiments:
ABCG2 [1] = target: T1, ABCG2 (Homo sapiens, UniProt Q9UNQ0); assay: ATPase activity of ABCG2, total membranes of High-Five insect cells
T1 sequence (Q9UNQ0 1-655): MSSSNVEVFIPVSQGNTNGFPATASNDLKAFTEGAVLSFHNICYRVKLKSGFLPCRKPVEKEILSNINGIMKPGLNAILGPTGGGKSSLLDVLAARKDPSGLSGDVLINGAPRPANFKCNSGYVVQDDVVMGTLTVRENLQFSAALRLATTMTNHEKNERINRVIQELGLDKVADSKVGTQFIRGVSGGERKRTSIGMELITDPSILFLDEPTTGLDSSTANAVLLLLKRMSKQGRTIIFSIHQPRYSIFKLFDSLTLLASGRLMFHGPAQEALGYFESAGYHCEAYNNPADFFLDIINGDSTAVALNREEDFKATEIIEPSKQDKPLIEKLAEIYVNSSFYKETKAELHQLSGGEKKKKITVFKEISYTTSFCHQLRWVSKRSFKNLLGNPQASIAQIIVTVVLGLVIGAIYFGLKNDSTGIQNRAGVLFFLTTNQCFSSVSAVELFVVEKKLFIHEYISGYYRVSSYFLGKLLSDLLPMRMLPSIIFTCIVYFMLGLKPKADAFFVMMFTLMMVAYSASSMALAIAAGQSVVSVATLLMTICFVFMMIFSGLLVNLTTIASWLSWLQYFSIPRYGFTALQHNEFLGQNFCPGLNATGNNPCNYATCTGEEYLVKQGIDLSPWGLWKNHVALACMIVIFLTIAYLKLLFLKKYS

human A1 receptor = conditions: cited from earlier work
human A2A receptor = conditions: cited from earlier work
ABCG2 [2] = target: T1, ABCG2
P-gp (ABCB1) = conditions: cited from earlier work
[3] = target: T2, human A3 adenosine receptor (Homo sapiens, UniProt P0DMS8); conditions: agonists; Tables S1 – S4; cited from earlier work
T2 sequence (P0DMS8 1-318): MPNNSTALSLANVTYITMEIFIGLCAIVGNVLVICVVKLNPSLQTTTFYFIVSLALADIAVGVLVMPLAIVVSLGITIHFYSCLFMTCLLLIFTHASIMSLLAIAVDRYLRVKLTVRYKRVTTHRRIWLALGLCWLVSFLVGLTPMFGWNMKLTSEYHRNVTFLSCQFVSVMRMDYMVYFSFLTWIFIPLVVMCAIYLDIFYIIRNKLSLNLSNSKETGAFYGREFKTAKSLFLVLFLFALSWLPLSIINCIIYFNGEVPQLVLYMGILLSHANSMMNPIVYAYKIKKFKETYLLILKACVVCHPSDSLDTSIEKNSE

[4] = target: mouse A3 adenosine receptor; conditions: read-out: A3 adenosine receptor affinity Ki; mouse homologue; cited from earlier work
ABCG2 [5] = target: T1, ABCG2; assay: in vitro; conditions: pH 6.8

Question: Which “modulation of ABCG2 ATP hydrolysis” value (ABCG2 [1]) does the source give for `CNC(=O)[C@]12C[C@@H]1[C@@H](n1cnc3c(NCc4cccc(Cl)c4)nc(C#Cc4ccccc4)nc31)[C@H](O)[C@@H]2O` [Compound 8] here?
Answer: stimulated ATP hydrolysis at 2.5 μM, but not 10 μM

Question: What does the source list for `COc1cc(CCNC2=NC(C#Cc3ccc(Cl)s3)=NC3=NC=NC32)ccc1O` (centres unmarked) [Compound 37c]?
Answer: activity at human A1 receptor (human A1 receptor; adenine series): inactive; activity at human A2A receptor (human A2A receptor; adenine series): inactive

Question: With `CNC(=O)[C@]12C[C@@H]1[C@@H](n1cnc3c(NCc4cccc(-n5cc(-c6ccc(F)c(F)c6)nn5)c4)nc(C#Cc4ccc(C(F)(F)F)cc4)nc31)[C@H](O)[C@@H]2O` [Compound 21] as the molecule, how does the “modulation of ABCG2 ATP hydrolysis” value (ABCG2 [2]; human, 20 min, 2.5 μM, pH 6.8) read?
Answer: inhibited only at 10 μM

Question: What does the source list for `CNC(=O)[C@]12C[C@@H]1[C@@H](n1cnc3c(NCc4cccc(Cl)c4)nc(C#Cc4ccc(F)c(F)c4)nc31)[C@H](O)[C@@H]2O` [Compound 5]?
Answer: effect on ATPase activity of P-gp (P-gp (ABCB1)): stimulate the ATPase activity of P-gp; human A3 adenosine receptor affinity [3]: single digit nM affinity; modulation of ABCG2 ATP hydrolysis (ABCG2 [1]): stimulated ATP hydrolysis at multiple concentrations; ATPase activity of ABCG2 % Stimulation (upward arrow) (ABCG2 [1]; 2.5 μM, basal ATPase activity = 0%, mean ± SD, three experiments): ≥ 50%

Question: For `CCOC(=O)[C@]12C[C@@H]1[C@@H](n1cnc3c(NCCc4ccc(O)c(OC)c4)nc(C#Cc4ccc(Cl)s4)nc31)[C@H](O)[C@@H]2O` [Compound 55], which “ATPase activity of ABCG2 % Stimulation (upward arrow)” value (ABCG2 [2]; human, 20 min, 2.5 μM, pH 6.8) is on record?
Answer: ≥ 50%

Question: Which “modulation of ABCG2 ATP hydrolysis” value (ABCG2 [2]) does the source give for `CNc1nc(C#Cc2ccc(Cl)s2)nc2c1ncn2[C@H]1[C@H](O)[C@H](O)[C@@]2(C(=O)Oc3ccccc3)C[C@H]12` [Compound 50] here?
Answer: stimulated ATP hydrolysis at multiple concentrations

Question: What about the “human A3 adenosine receptor affinity” value [3] of the same molecule?
Answer: single digit nM affinity

Question: Which “ATPase activity of ABCG2 % Stimulation (upward arrow)” value (ABCG2 [2]; human, 20 min, 2.5 μM, pH 6.8) does the source give for `CCOC(=O)[C@]12C[C@@H]1[C@@H](n1ccc3c(NCCCc4ccc(OC)c(O)c4)nc(C#Cc4ccc(Cl)s4)nc31)[C@H](O)[C@@H]2O` [Compound 64] here?
Answer: ≥ 50%

Question: Which “increase of P-gp ATPase activity” value (P-gp (ABCB1); 2.5 μM) does the source give for `O[C@@H]1[C@H](O)[C@@H]2C[C@@H]2[C@H]1n1cnc2c(NCc3cccc(Cl)c3)nc(C#Cc3ccc(F)c(F)c3)nc21` [Compound 30] here?
Answer: 116%

Question: Which “modulation of ABCG2 ATP hydrolysis” value (ABCG2 [2]) does the source give for `CCCNc1nc(C#Cc2ccc(Cl)s2)nc2c1ncn2[C@H]1[C@H](O)[C@H](O)[C@@]2(C(=O)NC)C[C@H]12` [Compound 26] here?
Answer: stimulated ATP hydrolysis at multiple concentrations

Question: Which “modulation of ABCG2 ATP hydrolysis” value (ABCG2 [2]) does the source give for `CCCNc1nc(C#Cc2ccc(Cl)s2)nc2c1ncn2[C@@H]1O[C@H](C(=O)NC)[C@@H](O)[C@H]1O` [Compound 33] here?
Answer: stimulated ATP hydrolysis at multiple concentrations

Question: Which “modulation of ABCG2 ATP hydrolysis” value (ABCG2 [2]) does the source give for `CNC(=O)[C@H]1O[C@@H](n2cnc3c(NCc4cccc(I)c4)nc(Cl)nc32)[C@H](O)[C@@H]1O` [Compound 4, reference compound] here?
Answer: stimulated ATP hydrolysis at multiple concentrations

Question: For `CNC(=O)[C@]12C[C@@H]1[C@@H](n1cnc3c(NC)nc(C#Cc4ccc(Cl)s4)nc31)[C@H](O)[C@@H]2O` [Compound 25], which “modulation of ABCG2 ATP hydrolysis” value (ABCG2 [1]) is on record?
Answer: stimulated ATP hydrolysis at 2.5 μM, but not 10 μM

Question: For `CNC(=O)[C@]12C[C@@H]1[C@@H](n1cnc3c(NCc4cccc(-n5cc(-c6ccc(F)c(F)c6)nn5)c4)nc(C#Cc4cc(F)c(F)c(F)c4)nc31)[C@H](O)[C@@H]2O` [Compound 20], which “modulation of ABCG2 ATP hydrolysis” value (ABCG2 [2]) is on record?
Answer: inhibited ATP hydrolysis at both concentrations

Question: For `CNC(=O)[C@]12C[C@@H]1[C@@H](n1cnc3c(NCc4cccc(Cl)c4)nc(C#Cc4cccc(Cl)c4)nc31)[C@H](O)[C@@H]2O` [Compound 10], which “modulation of ABCG2 ATP hydrolysis” value (ABCG2 [1]) is on record?
Answer: stimulated ATP hydrolysis at 2.5 μM, but not 10 μM

Question: Which “activity at human A1 receptor” value (human A1 receptor) does the source give for `CCOC(=O)[C@]12C[C@@H]1[C@@H](n1ccc3c(NCCc4ccccc4)nc(C#Cc4ccccc4)nc31)[C@H](O)[C@@H]2O` [Compound 60] here?
Answer: inactive

Question: And the Ki [4]?
Answer: > 10 µM

Question: What about the “activity at human A2A receptor” value (human A2A receptor) of the same molecule?
Answer: inactive

Question: For `CCCOC(=O)[C@]12C[C@@H]1[C@@H](n1cnc3c(NC)nc(C#Cc4ccc(Cl)s4)nc31)[C@H](O)[C@@H]2O` [Compound 45], which “modulation of ABCG2 ATP hydrolysis” value (ABCG2 [2]) is on record?
Answer: stimulated ATP hydrolysis at multiple concentrations

Question: And the “human A3 adenosine receptor affinity” value [3]?
Answer: single digit nM affinity

Question: With `CNC(=O)[C@]12C[C@@H]1[C@@H](n1cnc3c(NCc4cccc(-n5cc(-c6ccc(F)c(F)c6)nn5)c4)nc(C#Cc4ccc(F)cc4)nc31)[C@H](O)[C@@H]2O` [Compound 16] as the molecule, how does the inhibition at 20 min, 2.5 µM (ABCG2 [5]) read?
Answer: ≥ 50%

Question: For `CNC(=O)[C@]12C[C@@H]1[C@@H](n1cnc3c(NCc4cccc(-n5cc(-c6ccc(F)c(F)c6)nn5)c4)nc(C#Cc4ccc(F)cc4F)nc31)[C@H](O)[C@@H]2O` [Compound 19], which “modulation of ABCG2 ATP hydrolysis” value (ABCG2 [2]; human, 20 min, 2.5 μM, pH 6.8) is on record?
Answer: inhibited only at 10 μM

Question: With `CCOC(=O)[C@]12C[C@@H]1[C@@H](n1ccc3c(NCCCc4ccc(OC)c(O)c4)nc(C#Cc4ccccc4)nc31)[C@H](O)[C@@H]2O` [Compound 63] as the molecule, how does the “ATPase activity of ABCG2 % Stimulation (upward arrow)” value (ABCG2 [2]; human, 20 min, 2.5 μM, pH 6.8) read?
Answer: ≥ 50%

Question: Which “modulation of ABCG2 ATP hydrolysis” value (ABCG2 [2]) does the source give for `CNC(=O)[C@]12C[C@@H]1[C@@H](n1cnc3c(NCc4cccc(Cl)c4)nc(C#Cc4ccc(Cl)s4)nc31)[C@H](O)[C@@H]2O` [Compound 29] here?
Answer: stimulated ATP hydrolysis at multiple concentrations

Question: With `CNc1nc(C#Cc2ccc(Cl)s2)nc2c1ncn2[C@H]1[C@H](O)[C@H](O)[C@@]2(C(=O)OC)C[C@H]12` [Compound 27] as the molecule, how does the “modulation of ABCG2 ATP hydrolysis” value (ABCG2 [2]) read?
Answer: stimulated ATP hydrolysis at multiple concentrations

Question: For `CNC(=O)[C@]12C[C@@H]1[C@@H](n1cnc3c(NCc4cccc(-n5cc(-c6ccc(F)c(F)c6)nn5)c4)nc(C#Cc4ccc(F)c(F)c4)nc31)[C@H](O)[C@@H]2O` [Compound 17], which “effect on ATPase activity of P-gp” value (P-gp (ABCB1)) is on record?
Answer: partially inhibited the basal ATPase activity of P-gp

Question: And the “human A3 adenosine receptor affinity” value [3]?
Answer: single digit nM affinity

Question: For `CNC(=O)[C@]12C[C@@H]1[C@@H](n1cnc3c(N[C@H]4C[C@@H]4c4ccc(F)c(F)c4)nc(C#Cc4cccc(F)c4)nc31)[C@H](O)[C@@H]2O` [Compound 15], which “modulation of ABCG2 ATP hydrolysis” value (ABCG2 [2]; human, 20 min, 2.5 μM, pH 6.8) is on record?
Answer: stimulated ATP hydrolysis at 2.5 μM, but not 10 μM

Question: What about the “human A3 adenosine receptor affinity” value [3] of the same molecule?
Answer: single digit nM affinity

Question: For `CNC(=O)[C@]12C[C@@H]1[C@@H](n1cnc3c(NCc4cccc(Cl)c4)nc(-n4cc(-c5ccc(F)c(F)c5)nn4)nc31)[C@H](O)[C@@H]2O` [Compound 28], which “modulation of ABCG2 ATP hydrolysis” value (ABCG2 [2]; human, 20 min, 2.5 μM, pH 6.8) is on record?
Answer: inhibited only at 10 μM

Question: For `CNC(=O)[C@H]1O[C@@H](n2cnc3c(NC)nc(C#Cc4ccc(Cl)s4)nc32)[C@H](O)[C@@H]1O` [Compound 32], which “effect on ATPase activity of P-gp” value (P-gp (ABCB1)) is on record?
Answer: very weak at P-gp
